Where “and” joins values, the source holds several entries; their conditions need not be identical. Equal values may be shown once. Entries after “also recorded” stand apart in the source; their conditions may differ. Read-outs that look alike come from different tables or passages of the source.
Experiments:
[1] = test system: patients with PD and constipation; assay: Sleep diary in Stage 2: total sleep time, arm or leg thrashing (RBD); format: in vivo, human; conditions: baseline to maximal dose
Protocol: FIG. 3 is a chart of total sleep time in relation to squalamine dose. Total sleep time was obtained from the sleep diary by subtracting awake time during the night from total time spent in bed. Total sleep time per night was logged for each patient at baseline, each dosing period and at washout, and the means were determined. The light grey bar represents the baseline value for each cohort at a given dose level and the dark grey bar represents the value for the same cohort at the stated dose of squalamine (ENT-01; Kenterin™). The number of patients represented at each value are: Baseline, 33; 75 mg, 21; 100 mg, 28; 125 mg, 18; 150 mg, 15; 175 mg, 12; 200 mg, 7; 225 mg, 3; 250 mg, 2; washout, 33. P values were as follows: 75 mg, p=0.4; 100 mg, p=0.1; 125 mg, p=0.3; 150 mg, p=0.07; 175 mg, p=0.03; 200 mg, p=0.3; 225 mg, p=0.5; 250 mg, p=0.3; wash-out, p=0.04 (paired t test).
(5) Sleep Diary (participants completed a sleep diary on a daily basis throughout the study. The diaries included time into bed and estimated time to sleep as well as wake time and duration during the night.); […]

[2] = test system: patients with PD and constipation; assay: Circadian rhythm of wrist skin temperature; format: in vivo, human; conditions: for circadian rhythm of wrist skin temperature (IS, RA, CFI, IV): 12 evaluable patients, fixed dose versus baseline
Protocol: (6) I-Button Temperature Assessment. The 1-Button is a small, rugged self-sufficient system that measures temperature and records the results in a protected memory section. The Thermochron I-Button DS1921H (Maxim Integrated, Dallas, Tex.) was used for skin temperature measurement. I-Buttons were programmed to sample every 10 mins., and attached to a double-sided cotton sport wrist band using Velcro, with the sensor face of the I-Button placed over the inside of the wrist, on the radial artery of the dominant hand. Subjects removed and replaced the data logger when necessary (i.e., to have a bath or shower). The value of skin temperature assessment in sleep research is that the endogenous skin warming resulting from increased skin blood flow is functionally linked to sleep propensity. From the collected data, the mesor, amplitude, acrophase (time of peak temperature), Rayleight test (an index of interdaily stability), mean waveforms are calculated.);
(§1) Assessments were made at baseline and at the end of the fixed dose and washout periods. Circadian system status was evaluated by continuously monitoring wrist skin temperature (Thermochron iButton DS1921H; Maxim, Dallas) following published procedures (Sarabia et al. 2008).
Circadian rhythm of skin temperature was evaluable in 12 patients (i.e., those who had recordings that extended from baseline through washout). Circadian system functionality was evaluated by continuously monitoring wrist skin temperature using a temperature sensor (Thermochron iButton DS1921H; Maxim, Dallas, Tex.) (Sarabia et al. 2008). […]
Briefly, this analysis includes the following parameters: (i) the inter-daily stability (the constancy of 24-hour rhythmic pattern over days, IS); (ii) intra-daily variability (rhythm fragmentation, IV); (iii) average of 10-minute intervals for the 10 hours with the minimum temperature (L10); (iv) average of 10-minute intervals for the 5 hours with the maximum temperature ([…]) and the relative amplitude (RA), which was determined by the difference between M5 and L10, divided by the sum of both. […]

[3] = test system: patients with PD and constipation; assay: Neurological (CNS) symptoms in Stage 2: UPDRS, MMSE, PDHQ, BDI-II; format: in vivo, human; conditions: for patients in whom hallucinations or delusions improved or disappeared during treatment: 6 patients with hallucinations (5) or delusions (1) at baseline
From the text: (8) Beck Depression Inventory (BDI-II);
(9) Unified Parkinson's Disease Rating Scale (UPDRS), which consists of 42 items in four subscales (Part I=Non-Motor Aspects of Experiences of Daily Living (nM-EDL) (1.1 cognitive impairment, 1.2 hallucinations and psychosis, 1.3 depressed mood, Part II=Motor Aspects of Experiences of Daily Living (M-EDL), Part III=Motor Examination, and Part IV=Motor Complications;
(10) Mini Mental State Examination (MMSE);
(12) The University of Miami Parkinson's Disease Hallucinations Questionnaire (UM-PDHQ);
Exploratory end-points, in addition to constipation, included for example, (i) depression assessed using the Beck Depression Inventory (BDI-II) (Steer et al. 2000) and Unified Parkinson's Disease Rating Scale (UPDRS); (ii) cognition assessed using the Mini Mental State Examination (MMSE) (Palsteia et al. 2018), Unified Parkinson's Disease Rating Scale (UPDRS), and Trail Making Test (TMT); (iii) sleep and REM-behavior disorder (RBI)) using a daily sleep diary, I-Button Temperature Assessment, a REM sleep behavior disorder (RBD) questionnaire (RBDQ) (Stiasny-Kolster et al. 2007), and the UPDRS; (iv) hallucinations assessed using the PD hallucinations questionnaire (PDHQ) (Papapetropoulos et al. 2008), the UPDRS, and direct questioning; (v) fatigue using the Parkinson's Disease Fatigue Scale (PFS-16) and the UPDRS; (vi) motor functions using the UPDRS; and (vii) non-motor functions using the UPDRS.
as §1
An exploratory analysis was done with respect to the sleep data, the body temperature data, mood, fatigue, hallucinations, cognition and other motor and non-motor symptoms of PD. Continuous measurements within a subject were compared with a paired t-test and continuous measurements between subject groups were compared with a two-group t-test. Categorical data were compared with a chi-squared test or a Fisher's exact test if the expected cell counts are too small for a chi-squared test.

[4] = parameters: species or system rats; conditions: rat, in vivo
[5] = test system: patients with PD and constipation; assay: Phase 2 trial Stage 2: adverse events; format: in vivo, human
Protocol: In Stage 2, 34 patients were evaluated. […] This dose was then maintained (“fixed dose”) fir an additional 3-5 days.

[6] = parameters: species or system dogs; conditions: dog, in vivo

Q: For `CC(C)[C@@H](CC[C@@H](C)[C@H]1CC[C@H]2[C@@H]3[C@H](O)C[C@H]4C[C@@H](NCCCNCCCCN)CC[C@]4(C)[C@H]3CC[C@]12C)OS(=O)(=O)O` (single isomer, unassigned) [ENT-01, squalamine], which “improvement of arm or leg thrashing frequency” value [1] is on record?
A: Its value is 100%.

Q: What about the “circadian rhythm of wrist skin temperature (IS, RA, CFI, IV)” value [2] of the same compound?
A: Its value is “significant positive impact; also recorded: improved all markers of healthy circadian function”.

Q: What about the “circadian rhythm of wrist skin temperature (IS, RA, CFI, IV)” value ([2]; listed as Aminosterol) of the same compound?
A: The value was “improved all markers of healthy circadian function”.

Q: And the “circadian rhythm parameters during wash-out” value ([2]; wash-out period (IS, CFI))?
A: Its value is “persisted for several of these circadian parameters”.

Q: What about the “time without return of hallucinations/delusions after discontinuation” value ([3]; 1 patient) of the same compound?
A: The value was 4 weeks.

Q: What about the “patients in whom hallucinations or delusions improved or disappeared during treatment” value [3] of the same compound?
A: The value was “five”.

Q: What about the “patients in whom hallucinations or delusions improved or disappeared during treatment” value ([3]; listed as aminosterol) of the same compound?
A: The value was “five and 5 of 6”.

Q: What about the “patients in whom hallucinations or delusions improved or disappeared during treatment” value ([3]; listed as squalamine (ENT-01)) of the same compound?
A: The value was 5 of 6.

Q: And the “time without return of hallucinations/delusions after discontinuation” value ([3]; another patient)?
A: Its value is 2 weeks.

Q: What about the oral bioavailability [4] of the same compound?
A: The oral bioavailability was “limited bioavailability”.

Q: What about the “absorption from the intestine” value ([4]; po) of the same compound?
A: The value was “low”.

Q: And the “patients who withdrew during dosing because of diarrhea” value ([5]; Stage 2)?
A: The value was 2.

Q: What about the “Difficulty falling asleep, mild” value ([5]; Stage 2, 34 dosed) of the same compound?
A: The value was 1(3)^ n, %.

Q: And the “Eye infection, mild” value ([5]; Stage 2, 34 dosed)?
A: Its value is 1(3)^ n, %.

Q: And the “Flatulence, mild” value ([5]; Stage 2, 34 dosed)?
A: The value was 1(3)^ n, %.

Q: What about the “Urinary retention, mild” value ([5]; Stage 2, 34 dosed) of the same compound?
A: Its value is 1(3)^ n, %.

Q: And the “Urinary tract infection, mild” value ([5]; Stage 2, 34 dosed)?
A: The value was 1(3)^ n, %.

Q: What about the “Worsening hemorrhoid, mild” value ([5]; Stage 2, 34 dosed) of the same compound?
A: Its value is 1(3)^ n, %.

Q: What about the oral bioavailability [6] of the same compound?
A: The oral bioavailability was “limited bioavailability”.
